Assays:
Format in all cases: in vivo
[1] = system: corn (Zea mays L.), ZEAMX; assay: Test Example 2 post-emergence (foliage treatment) herbicidal activity, ZEAMX
Procedure, shortened: (§1)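 Each species was evaluated for growth suppression by eye, 0% matching untreated and 100% meaning death, some 20 to 23 days after a single post-emergence foliar treatment applied in 500 L/ha of water carrying 0.1% (v/v) agricultural spreader.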

[2] = system: barnyardgrass (Echinochiloa oryzicola: ECHOR); assay: Test Example 3 water application herbicidal activity (paddy), ECHOR; conditions: 63 g a.i./ha, water application under submerged condition at 0.5 leaf stage, visually observed 14th day after application; 0 = untreated control, 100 = complete kill
Procedure, shortened: (§2)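 Compound, as diluted wettable powder or emulsifiable concentrate, was pipetted into flood water at a set active-ingredient dose. Weeds were treated at 0.5-leaf stage after sowing or tuber planting; 2-leaf rice 4 days post-transplant. Control scored visually, 0 untreated to 100 complete kill, weeds day 14, rice day 21.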

[3] = system: green foxtail (Setaria viridis L.), SETVI; assay: Test Example 2 post-emergence (foliage treatment) herbicidal activity, SETVI
Procedure, shortened: as §1

[4] = system: soybean (Glycine max Merr.): GLXMA; assay: Test Example 1 pre-emergence herbicidal activity, GLXMA; conditions: Rate 63 g a.i./ha, visually observed 20th to 23rd day after application
Procedure, shortened: (§3)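 Seeds go into pots of upland field soil; one day on, the diluted formulation (500 L/ha water) is sprayed pre-emergence. Effects are scored visually 20 to 23 days post-application as 0–100% growth control.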

[5] = system: japanese bulrush (Scirpus juncoides: SCPJO); assay: Test Example 3 water application herbicidal activity (paddy), SCPJO; conditions: 63 g a.i./ha, water application under submerged condition at 0.5 leaf stage, visually observed 14th day after application; 0 = untreated control, 100 = complete kill
Procedure, shortened: as §2

[6] = system: barnyardgrass (Echinochloa crus-galli L.): ECHCG; assay: Test Example 1 pre-emergence herbicidal activity, ECHCG; conditions: Rate 63 g a.i./ha, visually observed 20th to 23rd day after application
Procedure, shortened: as §3

[7] = system: crabgrass (Digitaria sanguinalis L.), DIGSA; assay: Test Example 2 post-emergence (foliage treatment) herbicidal activity, DIGSA
Procedure, shortened: (§4)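 Sow in upland soil; grow to leaf stage (barnyardgrass 1.1-2.1, crabgrass 1.0-2.0, pigweed 0.1-1.5, rice 1.0-2); spray foliage at a fixed active ingredient rate in 500 L/ha water with 0.1% (v/v) spreader; rate growth control visually at 20-23 days on a 0-100% scale.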

[8] = system: wheat (Triticum aestivum L.), TRZAX; assay: Test Example 2 post-emergence (foliage treatment) herbicidal activity, TRZAX
Procedure, shortened: as §1

[9] = system: soybean (Glycine max Merr.), GLXMA; assay: Test Example 2 post-emergence (foliage treatment) herbicidal activity, GLXMA
Procedure, shortened: as §1

[10] = system: rice (Oryza sativa L.: ORYSA); assay: Test Example 3 water application herbicidal activity (paddy), transplanted rice ORYSA; conditions: 63 g a.i./ha, water application 4th day after transplantation of 2 leaf stage rice, visually observed 21st day after application; 0 = untreated control, 100 = complete kill
Procedure, shortened: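 Flooded paddy-soil pots in greenhouse; ECHOR and SCPJO sown, SAGPY tubers planted a day later, compound applied into 3–4 cm water at weeds' 0.5-leaf stage. Rice transplanted at 2-leaf stage, treated day 4 after transplanting. Visual growth control 0–100% at 14 days (weeds) and 21 days (rice) after application.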

[11] = system: redroot pigweed (Amaranthus retroflexus L.), AMARE; assay: Test Example 2 post-emergence (foliage treatment) herbicidal activity, AMARE
Procedure, shortened: as §4

[12] = system: prickly sida (Sida spinosa L.): SEDSP; assay: Test Example 1 pre-emergence herbicidal activity, SIDSP; conditions: Rate 63 g a.i./ha, visually observed 20th to 23rd day after application
Procedure, shortened: as §3

[13] = system: redroot pigweed (Amaranthus retroflexus L.): AMARE; assay: Test Example 1 pre-emergence herbicidal activity, AMARE; conditions: Rate 63 g a.i./ha, visually observed 20th to 23rd day after application
Procedure, shortened: as §3

[14] = system: corn (Zea mays L.): ZEAMX; assay: Test Example 1 pre-emergence herbicidal activity, ZEAMX; conditions: Rate 63 g a.i./ha, visually observed 20th to 23rd day after application
Procedure, shortened: as §3

[15] = system: wheat (Triticum aestivum L.): TRZAX; assay: Test Example 1 pre-emergence herbicidal activity, TRZAX; conditions: Rate 63 g a.i./ha, visually observed 20th to 23rd day after application
Procedure, shortened: as §3

[16] = system: crabgrass (Digitaria sanguinalis L.): DIGSA; assay: Test Example 1 pre-emergence herbicidal activity, DIGSA; conditions: Rate 63 g a.i./ha, visually observed 20th to 23rd day after application
Procedure, shortened: as §3

[17] = system: rice (Oryza sativa L.), ORYSA; assay: Test Example 2 post-emergence (foliage treatment) herbicidal activity, ORYSA
Procedure, shortened: as §4

[18] = system: japanese ribbon wapato (Sagittaria pygmaea: SA GPY); assay: Test Example 3 water application herbicidal activity (paddy), SAGPY; conditions: 63 g a.i./ha, water application under submerged condition, tubers planted, visually observed 14th day after application; 0 = untreated control, 100 = complete kill
Procedure, shortened: as §2

[19] = system: barnyardgrass (Echinochloa crus-galli L.), ECHCG; assay: Test Example 2 post-emergence (foliage treatment) herbicidal activity, ECHCG
Procedure, shortened: as §4

[20] = system: velvetleaf (Abutilon theophrasti), ABUTH; assay: Test Example 2 post-emergence (foliage treatment) herbicidal activity, ABUTH
Procedure, shortened: as §1

[21] = system: rice (Oryza sativa L.): ORYSA; assay: Test Example 1 pre-emergence herbicidal activity, ORYSA; conditions: Rate 63 g a.i./ha, visually observed 20th to 23rd day after application
Procedure, shortened: as §3

[22] = system: green foxtail (Setaria viridis L.): SETVI; assay: Test Example 1 pre-emergence herbicidal activity, SETVI; conditions: Rate 63 g a.i./ha, visually observed 20th to 23rd day after application
Procedure, shortened: as §3

[23] = system: velvetleaf (Abutilon theophrasti): ABUTH; assay: Test Example 1 pre-emergence herbicidal activity, ABUTH; conditions: Rate 63 g a.i./ha, visually observed 20th to 23rd day after application
Procedure, shortened: as §3

[24] = system: prickly sida (Sida spinosa L.), SIDSP; assay: Test Example 2 post-emergence (foliage treatment) herbicidal activity, SIDSP
Procedure, shortened: as §1

Row | SMILES | growth controlling degree, ZEAMX ([1]; 63 g a.i./ha) | growth controlling degrees (%) ECHOR [2] | growth controlling degree, SETVI ([3]; 63 g a.i./ha) | Pre-emergence Herbicidal Activity GLXMA (growth controlling degree) [4] | growth controlling degrees (%) SCPJO [5] | Pre-emergence Herbicidal Activity ECHCG (growth controlling degree) [6] | growth controlling degree, DIGSP ([7]; 63 g a.i./ha) | growth controlling degree, TRZAX ([8]; 63 g a.i./ha) | growth controlling degree, GLXMA ([9]; 63 g a.i./ha) | growth controlling degrees (%) ORYSA [10] | growth controlling degree, AMARE ([11]; 63 g a.i./ha) | Pre-emergence Herbicidal Activity SIDSP (growth controlling degree) [12] | Pre-emergence Herbicidal Activity AMARE (growth controlling degree) [13] | Pre-emergence Herbicidal Activity ZEAMX (growth controlling degree) [14] | Pre-emergence Herbicidal Activity TRZAX (growth controlling degree) [15] | Pre-emergence Herbicidal Activity DIGSP (growth controlling degree) [16] | growth controlling degrees (%) SAGPY [18] | Pre-emergence Herbicidal Activity ORYSA (growth controlling degree) [21] | Pre-emergence Herbicidal Activity SETVI (growth controlling degree) [22] | Pre-emergence Herbicidal Activity ABUTH (growth controlling degree) [23] | other results
1 | COC(=O)Nc1c(OC)c(Cl)cc(F)c1-c1nn(C)c(OC(F)F)c1Cl [Compound 1-62] | 80% | 100% | 100% | 20% | 100% | 100% | 100% | 30% | 80% | 70% | 100% | 100% | 100% | 30% | 60% | 100% | 100% | 80% | 100% | 100% | growth controlling degree, ORYSA ([17]; 63 g a.i./ha): 80%; growth controlling degree, ECHCO ([19]; 63 g a.i./ha): 100%; growth controlling degree, ABUTH ([20]; 63 g a.i./ha): 100%; growth controlling degree, SIDSP ([24]; 63 g a.i./ha): 100%
2 | COc1c(Cl)cc(F)c(-c2nn(C)c(OC(F)F)c2Cl)c1NC(=O)CCc1ccccc1 [Compound 1-21] |  | 100% |  | 10% | 70% | 95% |  |  |  | 50% |  | 100% | 100% | 20% | 0% | 100% | 100% | 40% | 100% | 100% | growth controlling degree, ZEAMX ([1]; 31 g a.i./ha): 90%; growth controlling degree, SETVI ([3]; 31 g a.i./ha): 95%; growth controlling degree, DIGSP ([7]; 31 g a.i./ha): 60%; growth controlling degree, TRZAX ([8]; 31 g a.i./ha): 40%; growth controlling degree, GLXMA ([9]; 31 g a.i./ha): 70%; growth controlling degree, AMARE ([11]; 31 g a.i./ha): 100%; growth controlling degree, ORYSA ([17]; 31 g a.i./ha): 90%; growth controlling degree, ECHCO ([19]; 31 g a.i./ha): 80%; growth controlling degree, ABUTH ([20]; 31 g a.i./ha): 100%; growth controlling degree, SIDSP ([24]; 31 g a.i./ha): 100%
3 | COc1c(Cl)cc(F)c(-c2nn(C)c(OC(F)F)c2Cl)c1NC(=O)CCOc1ccccc1 [Compound 1-34] | 50% | 100% | 100% | 0% | 50% | 0% | 70% | 30% | 70% | 30% | 100% | 70% | 100% | 0% | 0% | 60% | 80% | 0% | 70% | 30% | growth controlling degree, ORYSA ([17]; 63 g a.i./ha): 40%; growth controlling degree, ECHCO ([19]; 63 g a.i./ha): 70%; growth controlling degree, ABUTH ([20]; 63 g a.i./ha): 100%; growth controlling degree, SIDSP ([24]; 63 g a.i./ha): 100%
4 | COc1c(Cl)cc(F)c(-c2nn(C)c(OC(F)F)c2Cl)c1NC(=O)C(C)C [Compound 1-3] | 70% | 100% | 100% | 20% | 98% | 100% | 95% | 40% | 80% | 80% | 100% | 100% | 100% | 50% | 40% | 100% | 100% | 80% | 100% | 100% | growth controlling degree, ORYSA ([17]; 63 g a.i./ha): 80%; growth controlling degree, ECHCO ([19]; 63 g a.i./ha): 70%; growth controlling degree, ABUTH ([20]; 63 g a.i./ha): 100%; growth controlling degree, SIDSP ([24]; 63 g a.i./ha): 100%
